# Source: patent publication US10124004B2, “Pyrido[3,4-d]pyrimidine derivative and pharmaceutically acceptable salt thereof” (Teijin Pharma Limited, priority 2015, dated 2018)
# pIC50: −log10 of the molar value.
# Legend:
# CDK2/cyclin A2 = target: T1, CDK2/cyclin A2 (Homo sapiens, UniProt P24941); assay: Human CDK2/cyclin A2 inhibitory activity (QS S Assist CDK2/Cyclin A2_FP Kit, IMAP fluorescence polarization); assay type: biochemical; settings: Human CDK2/cyclin A2 inhibitory activity; read-out: CDK2 Activity symbol
# T1 construct: purchased Carna Biosciences, Inc. QS S Assist CDK2/Cyclin A2_FP Kit
# Outline: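 Kinase activity read as fluorescence polarization (485/535 nm) after phosphorylated fluorescent substrate binds IMAP reagent (30 min, RT, dark). Enzyme (2.5 ng/well) reacted 60 min at RT with ATP/substrate/metal in HEPES pH 7.4 buffer with Tween 20 and DTT; no-enzyme wells define 0% activity; IC50 by curve fit.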
# CDK4/cyclin D3 = target: T2, CDK4/cyclin D3 (Homo sapiens, UniProt P11802); assay: Human CDK4/cyclin D3 inhibitory activity (QS S Assist CDK4/Cyclin D3_FP Kit, IMAP fluorescence polarization); assay type: biochemical; settings: Human CDK4/cyclin D3 inhibitory activity; read-out: CDK4 Activity symbol
# T2 construct: purchased Carna Biosciences, Inc. QS S Assist CDK4/Cyclin D3_FP Kit
# T2 sequence (P11802 whole entry): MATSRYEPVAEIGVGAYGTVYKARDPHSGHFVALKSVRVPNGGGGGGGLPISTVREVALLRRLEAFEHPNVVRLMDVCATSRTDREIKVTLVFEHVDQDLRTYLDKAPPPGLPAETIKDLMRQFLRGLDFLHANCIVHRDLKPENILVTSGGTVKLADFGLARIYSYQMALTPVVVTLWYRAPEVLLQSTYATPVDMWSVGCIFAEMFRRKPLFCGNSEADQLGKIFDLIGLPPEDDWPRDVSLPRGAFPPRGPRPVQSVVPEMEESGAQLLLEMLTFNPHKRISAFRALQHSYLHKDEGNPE
# T2 sequence (P30281 whole entry partner): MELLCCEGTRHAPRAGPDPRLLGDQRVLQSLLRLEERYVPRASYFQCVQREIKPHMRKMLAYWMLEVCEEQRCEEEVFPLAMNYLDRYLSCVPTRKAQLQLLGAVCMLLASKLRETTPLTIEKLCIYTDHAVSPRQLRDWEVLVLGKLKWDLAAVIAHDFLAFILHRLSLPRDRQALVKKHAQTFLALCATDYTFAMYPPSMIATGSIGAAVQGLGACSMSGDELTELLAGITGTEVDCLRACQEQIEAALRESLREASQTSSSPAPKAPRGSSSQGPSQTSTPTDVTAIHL
# Outline: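 IMAP fluorescence-polarization kinase assay with kit ATP/substrate/metal mix and 12.5 to 25 ng/well enzyme in 20 mM HEPES pH 7.4, 0.01% Tween20, 2 mM DTT. Reaction ran 45 min at room temperature, then binding reagent was added for 30 min in the dark. IC50 was taken from dose-response fits of percent inhibition.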
Structure (SMILES),pIC50 (CDK2/cyclin A2),pIC50 (CDK4/cyclin D3)
CC(O)c1cc2cnc(Nc3ccc(N4CCNCC4)cn3)nc2c(NC2CCCOC2)n1 (stereo not shown) [Compound 93],≤ 7.00,> 8.00
CC(C)Nc1nc(C(F)F)cc2cnc(Nc3ccc(CN4CCOCC4)cn3)nc12 [Compound 94],≤ 7.00,> 8.00
CC(C)Nc1nc(C(F)F)cc2cnc(Nc3ccc(NC(=O)C(N)=O)cn3)nc12 [Compound 97],≤ 7.00,7.00 to 8.00
CC(C)Nc1nc(C(F)F)cc2cnc(Nc3ccc(NC(=O)CCO)cn3)nc12 [Compound 98],≤ 7.00,≤ 7.00
CC(C)Nc1nc(C(F)F)cc2cnc(Nc3ccc(-c4ccccc4)cn3)nc12 [Compound 99],≤ 7.00,≤ 7.00
CC(C)Nc1nc(C(F)F)cc2cnc(Nc3ccc(-c4ccncc4)cn3)nc12 [Compound 100],≤ 7.00,7.00 to 8.00
CC(C)Nc1nc(C(F)F)c(Cl)c2cnc(Nc3ccc(N4CCNCC4)cn3)nc12 [Compound 101],≤ 7.00,> 8.00
COC(=O)CCc1ccc(Nc2ncc3cc(C(F)F)nc(NC(C)C)c3n2)nc1 [Compound 102],≤ 7.00,7.00 to 8.00
CC(C)Nc1nc(C(F)F)cc2cnc(Nc3ccc(OCCN4CCCC4=O)cn3)nc12 [Compound 103],≤ 7.00,> 8.00
Cc1cccc(Nc2ncc3cc(C(F)F)nc(NC(C)C)c3n2)n1 [Compound 104],≤ 7.00,7.00 to 8.00
CC(O)c1cc2cnc(Nc3ccc(N4CCNCC4)cn3)nc2c(NC(C)c2cc[nH]n2)n1 (stereo not shown) [Compound 105],≤ 7.00,> 8.00
CC(O)c1cc2cnc(Nc3ccc(N4CCNCC4)cn3)nc2c(NC(C)c2cn[nH]c2)n1 (stereo not shown) [Compound 106],≤ 7.00,> 8.00
CC(C)Nc1nc(C(F)F)cc2cnc(Nc3ccc(C4CCC(O)CC4)cn3)nc12 (stereo not shown) [Compound 107],≤ 7.00,7.00 to 8.00
CC(C)Nc1nc(C(F)F)cc2cnc(Nc3ccc(C(=O)NCCO)cn3)nc12 [Compound 109],≤ 7.00,7.00 to 8.00
CC(C)Nc1nc(C(F)F)cc2cnc(Nc3ccc(-c4ccc(O)cc4)cn3)nc12 [Compound 110],≤ 7.00,≤ 7.00
CC(C)Nc1nc(C(F)F)cc2cnc(Nc3ccc(CCC(=O)O)cn3)nc12 [Compound 111],≤ 7.00,7.00 to 8.00
CC(C)Nc1nc(C(F)F)cc2cnc(Nc3ccc(CN4CCS(=O)(=O)CC4)cn3)nc12 [Compound 113],≤ 7.00,> 8.00
CC(C)Nc1nc(C(F)F)cc2cnc(Nc3ccc(CN4CCN(S(=O)(=O)N(C)C)CC4)cn3)nc12 [Compound 114],≤ 7.00,7.00 to 8.00
CC(C)Nc1nc(C(F)F)cc2cnc(Nc3ccc(CN4CCN(S(C)(=O)=O)CC4)cn3)nc12 [Compound 115],≤ 7.00,> 8.00

Structure (SMILES),pIC50 (CDK2/cyclin A2),pIC50 (CDK4/cyclin D3)
CC(C)Nc1nc(C(F)F)cc2cnc(Nc3ccc(CN4CCN(CC(F)(F)F)CC4)cn3)nc12 [Compound 116],≤ 7.00,7.00 to 8.00
CC(=O)N1CCN(Cc2ccc(Nc3ncc4cc(C(F)F)nc(NC(C)C)c4n3)nc2)CC1 [Compound 117],≤ 7.00,> 8.00
CC(C)Nc1nc(C(F)F)cc2cnc(Nc3ccc(O[C@H]4CC[C@@H](O)CC4)cn3)nc12 [Compound 119],≤ 7.00,7.00 to 8.00
CC(C)Nc1nc(C(F)F)cc2cnc(Nc3ccc(O[C@H]4CC[C@H](O)CC4)cn3)nc12 [Compound 120],≤ 7.00,7.00 to 8.00
CC(C)Nc1nc(C(F)F)cc2cnc(Nc3ccc(OCC(C)(C)CO)cn3)nc12 [Compound 122],≤ 7.00,7.00 to 8.00
CC(C)Nc1nc(C(F)F)cc2cnc(Nc3ccc(OCCCN4CCCC4=O)cn3)nc12 [Compound 123],≤ 7.00,7.00 to 8.00
CC(=O)NCc1ccc(Nc2ncc3cc(C(F)F)nc(NC(C)C)c3n2)nc1 [Compound 124],≤ 7.00,7.00 to 8.00
CC(C)Nc1nc(C(F)F)cc2cnc(Nc3ccc(CN4CC(O)C4)cn3)nc12 [Compound 126],≤ 7.00,≤ 7.00
CC(C)Nc1nc(C(F)F)cc2cnc(Nc3ccc(CC(=O)O)cn3)nc12 [Compound 133],≤ 7.00,7.00 to 8.00
CC(C)Nc1nc(C(F)F)cc2cnc(Nc3ccc(CCCC(N)=O)cn3)nc12 [Compound 135],≤ 7.00,> 8.00
CC(C)Nc1nc(C(F)F)cc2cnc(Nc3ccc(CCCC(=O)O)cn3)nc12 [Compound 136],≤ 7.00,7.00 to 8.00
CC(C)Nc1nc(C(F)F)cc2cnc(Nc3ccc(CNS(C)(=O)=O)cn3)nc12 [Compound 140],≤ 7.00,> 8.00
CC(C)Nc1nc(C(F)F)cc2cnc(Nc3ccc(CN(C)S(C)(=O)=O)cn3)nc12 [Compound 141],≤ 7.00,> 8.00
CC(C)Nc1nc(C(F)F)cc2cnc(Nc3ccc(CN(CC4CCOCC4)S(C)(=O)=O)cn3)nc12 [Compound 143],≤ 7.00,7.00 to 8.00
CC(=O)N(Cc1ccc(Nc2ncc3cc(C(F)F)nc(NC(C)C)c3n2)nc1)CC1CCOCC1 [Compound 144],≤ 7.00,> 8.00
CC(=O)N(Cc1ccc(Nc2ncc3cc(C(F)F)nc(NC(C)C)c3n2)nc1)C[C@@H]1CCCO1 [Compound 146],≤ 7.00,> 8.00
CC(C)Nc1nc(C(F)F)cc2cnc(Nc3ccc(CN(C[C@H]4CCCO4)S(C)(=O)=O)cn3)nc12 [Compound 148],≤ 7.00,7.00 to 8.00
CC(C)Nc1nc(C(F)F)cc2cnc(Nc3ccc(CN(C[C@@H]4CCCO4)S(C)(=O)=O)cn3)nc12 [Compound 149],≤ 7.00,7.00 to 8.00

# Next, values leading:
pIC50 (CDK2/cyclin A2),pIC50 (CDK4/cyclin D3),Structure (SMILES)
≤ 7.00,≤ 7.00,CC(C)Nc1nc(C(F)F)cc2cnc(Nc3ccc(NS(C)(=O)=O)cn3)nc12 [Compound 88]
7.00 to 8.00,> 8.00,CC(C)Nc1nc(C(F)F)cc2cnc(Nc3ccc(N4CCNCC4=O)cn3)nc12 [Compound 89]
7.00 to 8.00,7.00 to 8.00,CC(C)Nc1nc(C(F)F)cc2cnc(Nc3ccc(N4CCC(C(=O)O)CC4)cn3)nc12 [Compound 90]
≤ 7.00,> 8.00,CC(=O)c1cc2cnc(Nc3ccc(N4CCNCC4)cn3)nc2c(N(C)C(C)C)n1 [Compound 91]
≤ 7.00,> 8.00,CC(O)c1cc2cnc(Nc3ccc(N4CCNCC4)cn3)nc2c(NC2CCOC2)n1 (stereo not shown) [Compound 92]
7.00 to 8.00,≤ 7.00,CC(C)Nc1nc(C(F)F)cc2cnc(Nc3ccc(NC(=O)CO)cn3)nc12 [Compound 95]
7.00 to 8.00,7.00 to 8.00,CC(C)Nc1nc(C(F)F)cc2cnc(Nc3ccc(C(N)=O)cn3)nc12 [Compound 96]
7.00 to 8.00,> 8.00,CC(C)Nc1nc(C(F)F)cc2cnc(Nc3ccc(CCCCO)cn3)nc12 [Compound 108]
7.00 to 8.00,7.00 to 8.00,CC(C)Nc1nc(C(F)F)cc2cnc(Nc3ccc(S(=O)(=O)CCCO)cn3)nc12 [Compound 112]
7.00 to 8.00,> 8.00,CC(C)Nc1nc(C(F)F)cc2cnc(Nc3ccc(CN4CCC(C(C)(C)O)CC4)cn3)nc12 [Compound 118]
7.00 to 8.00,> 8.00,CC(C)Nc1nc(C(F)F)cc2cnc(Nc3ccc(CCC(N)=O)cn3)nc12 [Compound 121]
7.00 to 8.00,> 8.00,CC(C)Nc1nc(C(F)F)cc2cnc(Nc3ccc(CN4CCC(C(N)=O)CC4)cn3)nc12 [Compound 125]
7.00 to 8.00,> 8.00,CC(C)Nc1nc(C(F)F)cc2cnc(Nc3ccc(CN4CCCC(CO)C4)cn3)nc12 (stereo not shown) [Compound 127]
7.00 to 8.00,> 8.00,CC(C)Nc1nc(C(F)F)cc2cnc(Nc3ccc(CN4CCCC(O)C4)cn3)nc12 (stereo not shown) [Compound 128]
7.00 to 8.00,> 8.00,CC(C)Nc1nc(C(F)F)cc2cnc(Nc3ccc(CN4CCC(C(=O)O)CC4)cn3)nc12 [Compound 129]
7.00 to 8.00,> 8.00,CC(C)Nc1nc(C(F)F)cc2cnc(Nc3ccc(CN4CCC(N(C)C)CC4)cn3)nc12 [Compound 130]
7.00 to 8.00,> 8.00,CC(C)Nc1nc(C(F)F)cc2cnc(Nc3ccc(CN4CCNC(=O)C4)cn3)nc12 [Compound 131]
7.00 to 8.00,> 8.00,CC(C)Nc1nc(C(F)F)cc2cnc(Nc3ccc(CC(N)=O)cn3)nc12 [Compound 132]
7.00 to 8.00,> 8.00,CC(C)Nc1nc(C(F)F)cc2cnc(Nc3ccc(CCO)cn3)nc12 [Compound 134]
7.00 to 8.00,> 8.00,CC(C)Nc1nc(C(F)F)cc2cnc(Nc3ccc(N4CC[C@H](O)CC4=O)cn3)nc12 [Compound 137]
7.00 to 8.00,> 8.00,CC(C)Nc1nc(C(F)F)cc2cnc(Nc3ccc(CNC(N)=O)cn3)nc12 [Compound 138]
7.00 to 8.00,> 8.00,CC(=O)N(C)Cc1ccc(Nc2ncc3cc(C(F)F)nc(NC(C)C)c3n2)nc1 [Compound 139]
7.00 to 8.00,> 8.00,CC(C)Nc1nc(C(F)F)cc2cnc(Nc3ccc(CN4CCC(O)CC4)cn3)nc12 [Compound 142]
7.00 to 8.00,> 8.00,CC(=O)N(Cc1ccc(Nc2ncc3cc(C(F)F)nc(NC(C)C)c3n2)nc1)C[C@H]1CCCO1 [Compound 145]
7.00 to 8.00,> 8.00,CC(C)Nc1nc(C(F)F)cc2cnc(Nc3ccc(CN4CCC(CO)CC4)cn3)nc12 [Compound 147]
